Laboratory results as given in PubChem BioAssay AID256 (DTP/NCI, 2004).
Several values for one entry are separate records, joined by “and”; a condition that tells them apart may be missing. Equal values may be shown once. Toxic doses and inconclusive results are not listed. How the source made its calls: active means survival T/C of 150% or more; inactive means T/C below 125% in these data.

System: CD2F1 mice, L1210 leukemia ip, survival T/C
Experiment: NCI In Vivo Anticancer Drug Screen. Data for tumor model L1210 Leukemia (intraperitoneal) in CD2F1 (CDF1) mice
Details: higher = longer survival
Outline: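 Tumor-bearing mice (transplanted tumor) were split into treated and vehicle control groups, and the measured endpoint of each treated group was divided by that of its vehicle controls.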

[1] = endpoint: mean survival time, dose: 100.0 mg/kg/injection, schedule: Q04DX003 (ip), vehicle: saline with Tween-80
[2] = endpoint: mean survival time, dose: 200.0 mg/kg/injection, schedule: Q04DX003 (ip), vehicle: saline with Tween-80
[3] = endpoint: mean survival time, dose: 400.0 mg/kg/injection, schedule: Q04DX003 (ip), vehicle: saline with Tween-80
[4] = endpoint: mean survival time, dose: 100.0 mg/kg/injection, schedule: Q04DX003 (ip), vehicle: saline
[5] = endpoint: mean survival time, dose: 200.0 mg/kg/injection, schedule: Q04DX003 (ip), vehicle: saline
[6] = endpoint: mean survival time, dose: 400.0 mg/kg/injection, schedule: Q04DX003 (ip), vehicle: saline
[7] = endpoint: mean survival time, dose: 100.0 mg/kg/injection, schedule: Q01DX009 (ip), vehicle: saline with Tween-80
[8] = endpoint: mean survival time, dose: 200.0 mg/kg/injection, schedule: Q01DX009 (ip), vehicle: saline with Tween-80
[9] = endpoint: mean survival time, dose: 400.0 mg/kg/injection, schedule: Q01DX009 (ip), vehicle: saline with Tween-80
[10] = endpoint: mean survival time, dose: 50.0 mg/kg/injection, schedule: Q01DX009 (ip), vehicle: saline with Tween-80
[11] = endpoint: mean survival time, dose: 100.0 mg/kg/injection, schedule: Q04DX002 (ip), vehicle: saline with Tween-80
[12] = endpoint: mean survival time, dose: 200.0 mg/kg/injection, schedule: Q04DX002 (ip), vehicle: saline with Tween-80

Measured: T/C

O=NN(CCCl)C(=O)/N=N/C(=O)N(CCCl)N=O
inactive: endpoint: median survival time, dose: 3.12 mg/kg/injection, schedule: Q01DX001 (ip), vehicle: water 100 % of control | endpoint: median survival time, dose: 6.25 mg/kg/injection, schedule: Q01DX001 (ip), vehicle: water 98 % of control | endpoint: median survival time, dose: 12.5 mg/kg/injection, schedule: Q01DX001 (ip), vehicle: water 113 % of control | endpoint: median survival time, dose: 25.0 mg/kg/injection, schedule: Q01DX001 (ip), vehicle: water 103 % of control and 105 % of control | endpoint: median survival time, dose: 50.0 mg/kg/injection, schedule: Q01DX001 (ip), vehicle: water 98 % of control and 112 % of control | endpoint: median survival time, dose: 100.0 mg/kg/injection, schedule: Q01DX001 (ip), vehicle: water 115 % of control (2×) and 122 % of control

Cc1ccc([N+](=O)[O-])cc1NC(=O)COc1cc(Cl)c(Cl)cc1Cl
inactive: [1] 110 % of control | [2] 90 % of control | [3] 90 % of control

COCCOCCOCCOCCOCCOCCOCCOCCOCCOCCOC(=O)N(CC[PH+](c1ccccc1)c1ccccc1)CC[PH+](c1ccccc1)c1ccccc1.[Cl][Pt][Cl]
inactive: endpoint: median survival time, dose: 3.13 mg/kg/injection, schedule: Q04DX003 (ip), vehicle: distilled water + Tween-80 101 % of control | endpoint: median survival time, dose: 6.25 mg/kg/injection, schedule: Q04DX003 (ip), vehicle: distilled water + Tween-80 100 % of control | endpoint: median survival time, dose: 12.5 mg/kg/injection, schedule: Q04DX003 (ip), vehicle: distilled water + Tween-80 104 % of control | endpoint: median survival time, dose: 25.0 mg/kg/injection, schedule: Q04DX003 (ip), vehicle: distilled water + Tween-80 96 % of control | endpoint: median survival time, dose: 50.0 mg/kg/injection, schedule: Q04DX003 (ip), vehicle: distilled water + Tween-80 115 % of control | endpoint: median survival time, dose: 100.0 mg/kg/injection, schedule: Q04DX003 (ip), vehicle: distilled water + Tween-80 100 % of control | endpoint: median survival time, dose: 200.0 mg/kg/injection, schedule: Q04DX003 (ip), vehicle: distilled water + Tween-80 98 % of control

Oc1ccccc1C=NCCN=Cc1ccccc1O
inactive: [1] 90 % of control | [2] 100 % of control | [3] 92 % of control

O=S(O)OS(=O)O
inactive: endpoint: mean survival time, dose: 37.5 mg/kg/injection, schedule: Q01DX009 (ip), vehicle: saline 89 % of control | endpoint: mean survival time, dose: 75.0 mg/kg/injection, schedule: Q01DX009 (ip), vehicle: saline 91 % of control | [4] 101 % of control | endpoint: mean survival time, dose: 150.0 mg/kg/injection, schedule: Q01DX009 (ip), vehicle: saline 93 % of control | [5] 101 % of control | endpoint: mean survival time, dose: 300.0 mg/kg/injection, schedule: Q01DX009 (ip), vehicle: saline 91 % of control | [6] 96 % of control

C=C1C(=O)O[C@@H]2[C@H]1[C@@H](OC(C)=O)C[C@H](C)[C@@H]1CCC(=O)[C@@]21C
inactive: [7] 93 % of control | [8] 89 % of control | [9] 92 % of control

Cc1c(N)cc([N+](=O)[O-])c(C)c1[N+](=O)[O-]
inactive: [10] 110 % of control | [7] 104 % of control | [1] 98 % of control | [8] 117 % of control | [2] 98 % of control

NC(=S)N/N=C\c1nccc2c(C(F)(F)F)cccc12
inactive: [11] 124 % of control | [12] 89 % of control

CCCCCCCCCCCCCCCCCC[N+](C)(C)C (tested in a mixture with another compound)
inactive: endpoint: mean survival time, dose: 1.5 mg/kg/injection, schedule: Q01DX009 (ip), vehicle: saline with Tween-80 100 % of control | endpoint: mean survival time, dose: 3.0 mg/kg/injection, schedule: Q01DX009 (ip), vehicle: saline with Tween-80 94 % of control | endpoint: mean survival time, dose: 6.0 mg/kg/injection, schedule: Q01DX009 (ip), vehicle: saline with Tween-80 94 % of control

OC1CC2CC2CC1O (centres undefined)
inactive: [1] 103 % of control | [2] 92 % of control | [3] 96 % of control

COc1ccc(C(C#N)C(CC(=O)c2ccccc2)c2ccccc2)cc1 (centres undefined)
inactive: [11] 98 % of control | [12] 91 % of control | endpoint: mean survival time, dose: 400.0 mg/kg/injection, schedule: Q04DX002 (ip), vehicle: saline with Tween-80 87 % of control

CCCCCCCCCCCCCCCc1cc(O)ccc1[N+](=O)[O-]
inactive: [7] 111 % of control | [8] 115 % of control | [9] 96 % of control

OC(c1ccccc1)C1CCN(Cc2ccccc2)CC1 (centres undefined)
inactive: [1] 96 % of control

CCOc1ccc(Cl)cc1
inactive: [10] 96 % of control | [7] 98 % of control

C=CC[n+]1cccc2ccccc21
inactive: [1] 111 % of control

CCC[CH2][Sn]([CH2]CCC)([CH2]CCC)[CH2]CC(=O)OC
inactive: [1] 101 % of control | [2] 95 % of control

ClCCOC(c1ccc(Cl)cc1)c1ccc(Cl)cc1
inactive: endpoint: mean survival time, dose: 100.0 mg/kg/injection, schedule: Q04DX003 (ip), vehicle: saline + alcohol 96 % of control | endpoint: mean survival time, dose: 200.0 mg/kg/injection, schedule: Q04DX003 (ip), vehicle: saline + alcohol 94 % of control | endpoint: mean survival time, dose: 400.0 mg/kg/injection, schedule: Q04DX003 (ip), vehicle: saline + alcohol 100 % of control

O=P(O)(CO)CO
inactive: endpoint: mean survival time, dose: 50.0 mg/kg/injection, schedule: Q01DX009 (ip), vehicle: saline 95 % of control | endpoint: mean survival time, dose: 100.0 mg/kg/injection, schedule: Q01DX009 (ip), vehicle: saline 101 % of control | endpoint: mean survival time, dose: 200.0 mg/kg/injection, schedule: Q01DX009 (ip), vehicle: saline 95 % of control

COc1ccccc1OCC(C)=O
inactive: [1] 108 % of control | [2] 98 % of control | [3] 97 % of control

CCCCS(=O)(=O)OCCCCOS(=O)(=O)CCCC
inactive: [4] 96 % of control | [5] 95 % of control | [6] 101 % of control

CC1CC(C)(C)OC(C(C)(C)C)O1 (centres undefined)
inactive: endpoint: mean survival time, dose: 50.0 mg/kg/injection, schedule: Q04DX002 (ip), vehicle: saline 92 % of control | endpoint: mean survival time, dose: 100.0 mg/kg/injection, schedule: Q04DX002 (ip), vehicle: saline 100 % of control | endpoint: mean survival time, dose: 200.0 mg/kg/injection, schedule: Q04DX002 (ip), vehicle: saline 103 % of control

CC(=O)OC1CCC2(C)C(=CCC3C2CCC2(C)C(C(C)CCCC(C)(C)O)CCC32)C1 (centres undefined)
inactive: [1] 97 % of control | [2] 89 % of control | [3] 94 % of control

CCN(CC)C1=C(c2ccccc2)C(=O)C(=O)C1c1ccccc1 (centres undefined)
inactive: endpoint: mean survival time, dose: 100.0 mg/kg/injection, schedule: Q01DX001 (ip), vehicle: saline with Tween-80 103 % of control | endpoint: mean survival time, dose: 200.0 mg/kg/injection, schedule: Q01DX001 (ip), vehicle: saline with Tween-80 107 % of control | endpoint: mean survival time, dose: 400.0 mg/kg/injection, schedule: Q01DX001 (ip), vehicle: saline with Tween-80 94 % of control

C[N+]1(C)CCOC(O)(c2ccc(-c3ccccc3)cc2)C1 (centres undefined)
inactive: endpoint: mean survival time, dose: 3.13 mg/kg/injection, schedule: Q04DX002 (ip), vehicle: saline 98 % of control | endpoint: mean survival time, dose: 6.25 mg/kg/injection, schedule: Q04DX002 (ip), vehicle: saline 91 % of control

COC(=S)C(c1ccccc1)(c1ccccc1)c1ccccc1
inactive: endpoint: mean survival time, dose: 100.0 mg/kg/injection, schedule: Q04DX002 (ip), vehicle: Klucel (hydroxypropylcellulose) (HPC) 93 % of control | endpoint: mean survival time, dose: 200.0 mg/kg/injection, schedule: Q04DX002 (ip), vehicle: Klucel (hydroxypropylcellulose) (HPC) 89 % of control | endpoint: mean survival time, dose: 400.0 mg/kg/injection, schedule: Q04DX002 (ip), vehicle: Klucel (hydroxypropylcellulose) (HPC) 89 % of control

CC1(O)OOC(=O)C1(C)C (centres undefined)
inactive: endpoint: mean survival time, dose: 5.0 mg/kg/injection, schedule: Q01DX001 (ip), vehicle: saline with Tween-80 91 % of control | endpoint: mean survival time, dose: 10.0 mg/kg/injection, schedule: Q01DX001 (ip), vehicle: saline with Tween-80 91 % of control | endpoint: mean survival time, dose: 20.0 mg/kg/injection, schedule: Q01DX001 (ip), vehicle: saline with Tween-80 92 % of control

O=C(Cc1ccccn1)c1ccccc1
inactive: endpoint: mean survival time, dose: 100.0 mg/kg/injection, schedule: Q01DX009 (ip), vehicle: other 101 % of control | endpoint: mean survival time, dose: 200.0 mg/kg/injection, schedule: Q01DX009 (ip), vehicle: other 96 % of control | endpoint: mean survival time, dose: 400.0 mg/kg/injection, schedule: Q01DX009 (ip), vehicle: other 96 % of control

CC(=O)OCC1OC(n2ccc(=O)[nH]c2=O)CC1N=[N+]=[N-] (centres undefined)
inactive: endpoint: median survival time, dose: 12.5 mg/kg/injection, schedule: Q01DX005 (ip), vehicle: saline with Tween-80 104 % of control | endpoint: median survival time, dose: 25.0 mg/kg/injection, schedule: Q01DX005 (ip), vehicle: saline with Tween-80 107 % of control | endpoint: median survival time, dose: 50.0 mg/kg/injection, schedule: Q01DX005 (ip), vehicle: saline with Tween-80 104 % of control | endpoint: median survival time, dose: 100.0 mg/kg/injection, schedule: Q01DX005 (ip), vehicle: saline with Tween-80 101 % of control | endpoint: median survival time, dose: 200.0 mg/kg/injection, schedule: Q01DX005 (ip), vehicle: saline with Tween-80 106 % of control

N#Cc1c(F)c(F)c(Oc2c(F)c(F)c(F)c(F)c2F)c(F)c1Oc1c(F)c(F)c(F)c(F)c1F
inactive: [1] 96 % of control | [2] 93 % of control | [3] 88 % of control
